pKi: −log10 of the molar value.
How the values were obtained:
[1] = molecular target: Nitric oxide synthase 1 (Rattus norvegicus, UniProt P29476); assay: Inhibition of rat recombinant nNOS expressed in Escherichia coli by hemoglobin capture assay
[2] = molecular target: T1, Nitric oxide synthase, inducible (Mus musculus, UniProt P29477); assay: Inhibition of mouse recombinant iNOS expressed in Escherichia coli by hemoglobin capture assay
T1 sequence (P29477 whole entry): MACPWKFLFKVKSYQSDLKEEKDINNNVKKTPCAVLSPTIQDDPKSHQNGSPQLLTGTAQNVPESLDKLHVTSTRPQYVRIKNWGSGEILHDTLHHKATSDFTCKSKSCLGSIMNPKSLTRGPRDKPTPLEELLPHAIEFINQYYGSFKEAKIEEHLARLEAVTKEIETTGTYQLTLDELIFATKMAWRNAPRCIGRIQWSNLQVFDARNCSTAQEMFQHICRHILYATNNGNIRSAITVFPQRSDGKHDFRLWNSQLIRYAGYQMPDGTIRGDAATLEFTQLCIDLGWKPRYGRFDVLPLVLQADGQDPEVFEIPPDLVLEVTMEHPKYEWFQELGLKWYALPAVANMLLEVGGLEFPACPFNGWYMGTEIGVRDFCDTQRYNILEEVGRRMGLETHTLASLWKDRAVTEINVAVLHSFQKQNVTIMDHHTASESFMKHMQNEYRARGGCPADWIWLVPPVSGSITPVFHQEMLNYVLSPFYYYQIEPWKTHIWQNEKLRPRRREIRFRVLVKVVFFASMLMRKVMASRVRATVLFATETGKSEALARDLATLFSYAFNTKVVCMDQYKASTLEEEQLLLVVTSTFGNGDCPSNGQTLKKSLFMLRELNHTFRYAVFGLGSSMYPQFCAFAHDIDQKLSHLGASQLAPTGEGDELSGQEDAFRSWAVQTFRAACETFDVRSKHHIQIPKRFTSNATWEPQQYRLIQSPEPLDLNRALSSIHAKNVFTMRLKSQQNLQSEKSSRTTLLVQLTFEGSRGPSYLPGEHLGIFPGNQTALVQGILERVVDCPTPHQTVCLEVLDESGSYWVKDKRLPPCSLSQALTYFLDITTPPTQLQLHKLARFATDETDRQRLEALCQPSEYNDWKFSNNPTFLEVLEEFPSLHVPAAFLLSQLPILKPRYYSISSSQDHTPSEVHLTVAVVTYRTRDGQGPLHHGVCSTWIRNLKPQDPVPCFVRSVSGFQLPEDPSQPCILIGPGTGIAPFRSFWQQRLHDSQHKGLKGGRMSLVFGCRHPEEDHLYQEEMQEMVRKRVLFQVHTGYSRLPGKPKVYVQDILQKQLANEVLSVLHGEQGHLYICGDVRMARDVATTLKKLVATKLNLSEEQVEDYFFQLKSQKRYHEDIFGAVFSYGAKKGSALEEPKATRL

[3] = molecular target: T2, Nitric oxide synthase 3 (Bos taurus, UniProt P29473); assay: Inhibition of bovine recombinant eNOS expressed in Escherichia coli by hemoglobin capture assay
T2 sequence (P29473 whole entry): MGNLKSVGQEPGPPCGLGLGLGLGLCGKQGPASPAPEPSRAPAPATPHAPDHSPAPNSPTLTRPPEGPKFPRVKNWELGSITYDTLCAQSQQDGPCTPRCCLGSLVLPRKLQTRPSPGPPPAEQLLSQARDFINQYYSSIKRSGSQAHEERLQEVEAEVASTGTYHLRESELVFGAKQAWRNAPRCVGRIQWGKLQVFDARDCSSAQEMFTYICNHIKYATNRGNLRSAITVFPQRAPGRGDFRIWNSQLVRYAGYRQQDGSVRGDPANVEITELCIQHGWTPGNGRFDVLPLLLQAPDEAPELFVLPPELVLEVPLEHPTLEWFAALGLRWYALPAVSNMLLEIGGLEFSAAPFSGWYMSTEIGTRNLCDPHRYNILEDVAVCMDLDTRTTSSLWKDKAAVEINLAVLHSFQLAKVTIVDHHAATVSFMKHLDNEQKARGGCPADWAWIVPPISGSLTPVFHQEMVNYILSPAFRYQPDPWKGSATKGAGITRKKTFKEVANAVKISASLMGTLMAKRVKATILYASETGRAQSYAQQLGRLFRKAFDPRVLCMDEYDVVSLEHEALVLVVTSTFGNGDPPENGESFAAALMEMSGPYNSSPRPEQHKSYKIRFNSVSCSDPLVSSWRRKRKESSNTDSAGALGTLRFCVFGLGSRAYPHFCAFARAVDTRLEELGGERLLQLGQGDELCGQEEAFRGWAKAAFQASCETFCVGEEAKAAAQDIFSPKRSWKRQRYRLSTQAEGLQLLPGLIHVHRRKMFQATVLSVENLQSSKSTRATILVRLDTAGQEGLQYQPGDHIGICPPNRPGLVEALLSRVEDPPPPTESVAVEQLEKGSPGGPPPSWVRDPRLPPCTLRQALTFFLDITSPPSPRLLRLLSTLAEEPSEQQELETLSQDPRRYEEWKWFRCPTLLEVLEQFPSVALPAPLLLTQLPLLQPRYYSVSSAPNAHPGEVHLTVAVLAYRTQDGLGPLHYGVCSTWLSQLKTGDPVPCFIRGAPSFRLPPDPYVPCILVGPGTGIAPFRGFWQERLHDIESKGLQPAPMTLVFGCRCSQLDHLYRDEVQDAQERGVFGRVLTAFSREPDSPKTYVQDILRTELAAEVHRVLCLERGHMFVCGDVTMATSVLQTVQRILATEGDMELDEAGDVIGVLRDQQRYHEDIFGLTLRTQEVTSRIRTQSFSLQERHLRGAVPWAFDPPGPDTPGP

Nitric oxide synthase 1, sequence (P29476 whole entry): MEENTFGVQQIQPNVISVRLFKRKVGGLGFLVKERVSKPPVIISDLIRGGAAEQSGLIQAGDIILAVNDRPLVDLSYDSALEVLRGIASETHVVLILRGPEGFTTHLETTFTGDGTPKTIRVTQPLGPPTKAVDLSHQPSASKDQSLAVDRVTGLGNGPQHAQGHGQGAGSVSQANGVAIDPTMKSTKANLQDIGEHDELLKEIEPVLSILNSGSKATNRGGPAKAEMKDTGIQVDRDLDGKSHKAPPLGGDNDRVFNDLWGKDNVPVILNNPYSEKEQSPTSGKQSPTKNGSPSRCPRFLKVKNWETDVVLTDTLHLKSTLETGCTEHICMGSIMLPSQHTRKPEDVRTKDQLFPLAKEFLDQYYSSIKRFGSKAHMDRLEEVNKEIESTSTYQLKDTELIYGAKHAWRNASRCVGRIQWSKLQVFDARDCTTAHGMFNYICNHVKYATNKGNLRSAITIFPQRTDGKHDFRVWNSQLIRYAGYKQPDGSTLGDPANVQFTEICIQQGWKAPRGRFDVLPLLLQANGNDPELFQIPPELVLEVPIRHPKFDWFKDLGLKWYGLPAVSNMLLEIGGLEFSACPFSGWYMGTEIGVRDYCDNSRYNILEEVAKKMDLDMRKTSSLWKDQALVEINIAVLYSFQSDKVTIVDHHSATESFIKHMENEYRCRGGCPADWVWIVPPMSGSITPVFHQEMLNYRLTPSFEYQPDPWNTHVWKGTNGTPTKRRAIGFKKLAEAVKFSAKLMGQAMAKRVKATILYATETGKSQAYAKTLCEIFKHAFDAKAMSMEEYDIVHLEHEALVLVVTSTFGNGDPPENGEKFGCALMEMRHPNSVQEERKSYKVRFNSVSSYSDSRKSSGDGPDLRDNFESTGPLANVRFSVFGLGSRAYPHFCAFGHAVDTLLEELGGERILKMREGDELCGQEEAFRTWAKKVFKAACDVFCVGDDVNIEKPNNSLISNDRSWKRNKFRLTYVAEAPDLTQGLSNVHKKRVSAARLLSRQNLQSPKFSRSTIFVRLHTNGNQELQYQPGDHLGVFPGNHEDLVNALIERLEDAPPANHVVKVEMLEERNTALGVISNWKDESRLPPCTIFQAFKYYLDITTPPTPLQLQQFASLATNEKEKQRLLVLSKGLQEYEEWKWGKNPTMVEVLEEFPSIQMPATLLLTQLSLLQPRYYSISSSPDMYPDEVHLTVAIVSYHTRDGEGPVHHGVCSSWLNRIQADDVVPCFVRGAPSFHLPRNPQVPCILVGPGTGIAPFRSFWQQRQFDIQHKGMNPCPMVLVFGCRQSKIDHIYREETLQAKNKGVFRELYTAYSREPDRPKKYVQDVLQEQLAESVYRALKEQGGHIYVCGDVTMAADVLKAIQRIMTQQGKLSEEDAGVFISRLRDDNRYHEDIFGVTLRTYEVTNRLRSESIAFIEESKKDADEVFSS

Row | SMILES | pKi [1] | pKi [2] | pKi [3]
1 | Nc1cccc(C[C@@H]2CNC[C@@H]2Oc2cccc(Oc3ccccc3)c2)n1 (racemic) | 5.52 | – | –
2 | Cc1cc(N)nc(C[C@@H]2CNC[C@@H]2OCc2ccc(-c3cccc(C(F)(F)F)c3)cc2)c1 (racemic) | – | 4.43 | 4.87
3 | Cc1cc(N)nc(C[C@@H]2CNC[C@@H]2OCc2ccc(-c3ccc(F)c(C)c3)cc2)c1 (racemic) | 6.21 | 4.66 | –

Second part, the compound after the results:

Row | pKi [1] | pKi [2] | pKi [3] | SMILES
4 | 6.12 | 4.40 | 4.88 | Cc1cc(N)nc(C[C@@H]2CNC[C@@H]2OCc2ccc(-c3cccc(F)c3)cc2)c1 (racemic)
5 | 5.92 | 4.25 | 4.59 | Cc1cc(N)nc(C[C@@H]2CNC[C@@H]2OCc2ccc(-c3cccc(Cl)c3)cc2)c1 (racemic)
6 | 6.12 | – | – | Cc1cc(N)nc(C[C@@H]2CNC[C@@H]2OCc2ccc(-c3ccc(F)c(Cl)c3)cc2)c1 (racemic)
